Source: ChEMBL document CHEMBL1201862, “PubChem BioAssay data set” (2004)
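Briefly, cells in 96-well plates were exposed to five compound concentrations for 48 h, and endpoints were estimated by linear interpolation. Abbreviation: GI50, concentration required for 50% inhibition of growth.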 Active and inactive are the calls of the source. Rule as the data show it: active = GI50 up to about 1.1 µM and inactive = higher.

Assays:
Experiment in all cases: growth of human tumour cells (NCI), 48 h
[1] = tested on: ACHN
[2] = tested on: UO-31
[3] = tested on: NCI-H23
[4] = tested on: TK-10
[5] = tested on: DU-145
[6] = tested on: NCI/ADR-RES
[7] = tested on: SK-MEL-28
[8] = tested on: SN12C
[9] = tested on: OVCAR-3
[10] = tested on: RPMI-8226
[11] = tested on: HL-60
[12] = tested on: SK-MEL-5
[13] = tested on: SNB-19
[14] = tested on: HCT-15
[15] = tested on: CCRF-CEM
[16] = tested on: SW-620
[17] = tested on: IGROV-1
[18] = tested on: SF-295
[19] = tested on: HOP-92
[20] = tested on: BT-549

SMILES | GI50 [1] | GI50 [2] | GI50 [3] | GI50 [4] | GI50 [5] | GI50 [6] | GI50 [7] | GI50 [8] | GI50 [9] | GI50 [10] | GI50 [11] | GI50 [12] | GI50 [13] | GI50 [14] | GI50 [15] | GI50 [16] | GI50 [17] | GI50 [18] | GI50 [19] | GI50 [20]
CCN(CC)CC/N=c1\c2cc(OC)ccc2[nH]c2c([N+](=O)[O-])ccc(NCCN(CC)CC)c12 | 2.78 µM (inactive) | 1.17 µM (inactive) | 1.86 µM (inactive) | 2.11 µM (inactive) | 2.37 µM (inactive) | 1.01 µM (active) | 4.11 µM (inactive) | 0.925 µM (active) | 1.92 µM (inactive) | 0.451 µM (active) | 0.989 µM (active) | 1.57 µM (inactive) | 0.794 µM (active) | 1.02 µM | 0.258 µM (active) | 0.6 µM (active) | 2.34 µM (inactive) | 1.26 µM (inactive) | 1.83 µM (inactive) | 
CC[N+](C)(CC)CCC(O)(c1ccccc1)c1ccccc1 | > 100 µM (inactive) | > 100 µM (inactive) | > 100 µM (inactive) | > 100 µM (inactive) | > 100 µM (inactive) | > 100 µM (inactive) | > 100 µM (inactive) | > 100 µM (inactive) | > 100 µM (inactive) | > 100 µM (inactive) | > 100 µM (inactive) | > 100 µM (inactive) | > 100 µM (inactive) | > 100 µM | > 100 µM (inactive) | > 100 µM (inactive) | > 100 µM (inactive) | > 100 µM (inactive) |  | > 100 µM (inactive)
COC(=O)C1=C(N)C2=C(N)Oc3ccccc3C2CC1=C(C#N)C#N (stereo unspecified) | 24.5 µM (inactive) | 19.2 µM (inactive) | 19.6 µM (inactive) | 25.6 µM (inactive) | 26.5 µM (inactive) | 20.2 µM (inactive) |  | 29 µM (inactive) | 25.6 µM (inactive) | 19.1 µM (inactive) | 29.2 µM (inactive) | 25.8 µM (inactive) | 18.6 µM (inactive) | 17.2 µM | 24.2 µM (inactive) | 33.7 µM (inactive) | 18.4 µM (inactive) | 25 µM (inactive) |  | 23.4 µM (inactive)
Cc1ccc(-n2c(Cn3nnc(-c4cccnc4)n3)nn(C3OC(COC(=O)c4ccccc4)C(OC(=O)c4ccccc4)C3OC(=O)c3ccccc3)c2=S)cc1 (stereo unspecified) | > 100 µM (inactive) | > 100 µM (inactive) | > 100 µM (inactive) | > 100 µM (inactive) | > 100 µM (inactive) | > 100 µM (inactive) | > 100 µM (inactive) | > 100 µM (inactive) | > 100 µM (inactive) | > 100 µM (inactive) |  | > 100 µM (inactive) | 32.3 µM (inactive) | > 100 µM | > 100 µM (inactive) | > 100 µM (inactive) | > 100 µM (inactive) | > 100 µM (inactive) |  | > 100 µM (inactive)
COc1ccc2cc(CNCCCCCCNC(=O)Nc3cccc4ccccc34)ccc2c1 | > 100 µM (inactive) |  | > 100 µM (inactive) | > 100 µM (inactive) | > 100 µM (inactive) |  | > 100 µM (inactive) | > 100 µM (inactive) | > 100 µM (inactive) | > 100 µM (inactive) | > 100 µM (inactive) | > 100 µM (inactive) | > 100 µM (inactive) | > 100 µM | > 100 µM (inactive) | > 100 µM (inactive) | > 100 µM (inactive) | > 100 µM (inactive) | > 100 µM (inactive) | > 100 µM (inactive)
Cc1c2oc3c(C)cc(F)c(C(=O)NC4C(=O)NC(C(C)C)C(=O)N5CCCC5C(=O)N(C)CC(=O)N(C)C(C(C)C)C(=O)OC4C)c3nc-2c(C(=O)NC2C(=O)NC(C(C)C)C(=O)N3CCCC3C(=O)N(C)CC(=O)N(C)C(C(C)C)C(=O)OC2C)c(N)c1=O (stereo unspecified) | 0.0832 µM (active) | 0.521 µM (active) | 0.105 µM (active) | 0.224 µM (active) | 0.115 µM (active) | 4.65 µM (inactive) | 0.0263 µM (active) | 0.0303 µM (active) | 0.0336 µM (active) | < 0.001 µM (active) | 0.00131 µM (active) | 0.0142 µM (active) | 0.00771 µM (active) | 0.0805 µM | < 0.001 µM (active) | 0.00114 µM (active) | 0.00618 µM (active) | 0.00708 µM (active) | 0.154 µM (active) | 
CCOc1nnnc2[nH]cnc12 |  | > 100 µM (inactive) | > 100 µM (inactive) | > 100 µM (inactive) | > 100 µM (inactive) | > 100 µM (inactive) | > 100 µM (inactive) | > 100 µM (inactive) | > 100 µM (inactive) | > 100 µM (inactive) | > 100 µM (inactive) | > 100 µM (inactive) |  | > 100 µM |  | > 100 µM (inactive) | > 100 µM (inactive) | > 100 µM (inactive) |  | > 100 µM (inactive)
CCOC(=O)c1cn2c(n1)sc1cccc(C)c12 | > 100 µM (inactive) | 72.8 µM (inactive) | > 100 µM (inactive) | > 100 µM (inactive) | > 100 µM (inactive) | > 100 µM (inactive) |  |  | > 100 µM (inactive) |  |  | 63.4 µM (inactive) | > 100 µM (inactive) | > 100 µM |  |  | 47.3 µM (inactive) | > 100 µM (inactive) |  | > 100 µM (inactive)
COc1cc(O)c2c(c1)C(=O)c1cc3c(c(O)c1C2=O)C(OC1OC(C)C(OC)C(O)C1OC)C(OC)C(C)(O)C3=O (stereo unspecified) | 2.14 µM (inactive) |  | 5.86 µM (inactive) | 3.67 µM (inactive) |  |  | 7.01 µM (inactive) |  | 2.84 µM (inactive) | 1.29 µM (inactive) | 2.79 µM (inactive) | 1.68 µM (inactive) | 6.53 µM (inactive) | 3.15 µM | 4.1 µM (inactive) | 3.6 µM (inactive) | 2.12 µM (inactive) | 4.73 µM (inactive) |  | 14.5 µM (inactive)
COc1ccc(/C=C2\N=C3NC(=O)C(N4CCOCC4)=C(N)N3C2=O)cc1 | 75.9 µM (inactive) | > 100 µM (inactive) | > 100 µM (inactive) | 53.7 µM (inactive) | > 100 µM (inactive) | > 100 µM (inactive) | > 100 µM (inactive) | > 100 µM (inactive) |  | > 100 µM (inactive) | 48.9 µM (inactive) | > 100 µM (inactive) | 96.8 µM (inactive) | > 100 µM | > 100 µM (inactive) | > 100 µM (inactive) | 85.5 µM (inactive) | 59.7 µM (inactive) | > 100 µM (inactive) | 
Cc1ccc2c(c1)C(=O)c1ccc(C)nc1C2=O | 35.7 µM (inactive) | 40.9 µM (inactive) | 18.9 µM (inactive) | > 100 µM (inactive) | 49.4 µM (inactive) | 24 µM (inactive) | 46.8 µM (inactive) | 20.4 µM (inactive) | 6.19 µM (inactive) | 43.3 µM (inactive) | 26.7 µM (inactive) | 13.2 µM (inactive) | 22.2 µM (inactive) | 16.9 µM | 58.7 µM (inactive) | 27.9 µM (inactive) | 27.7 µM (inactive) | 24.6 µM (inactive) |  | 25.6 µM (inactive)
CCOC(=O)c1nc2ccccc2nc1NCc1ccc(Cl)cc1Cl | > 100 µM (inactive) | > 100 µM (inactive) | > 100 µM (inactive) | > 100 µM (inactive) |  | > 100 µM (inactive) |  |  | > 100 µM (inactive) | > 100 µM (inactive) |  | > 100 µM (inactive) | > 100 µM (inactive) | > 100 µM | > 100 µM (inactive) | > 100 µM (inactive) | > 100 µM (inactive) | > 100 µM (inactive) | > 100 µM (inactive) | > 100 µM (inactive)
Cc1c(F)c(NC(=O)CN(C)C)c2c(=O)cc(-c3ccc(NC(=O)CN(C)C)c(F)c3)oc2c1F | 15.4 µM (inactive) | 13.6 µM (inactive) | 17.3 µM (inactive) | 7.57 µM (inactive) | 13.6 µM (inactive) | 14.8 µM (inactive) | 21.5 µM (inactive) | 17.8 µM (inactive) |  | 16.8 µM (inactive) | 17.1 µM (inactive) | 15 µM (inactive) | 16 µM (inactive) | 14.5 µM | 21.5 µM (inactive) | 16.2 µM (inactive) | 15.7 µM (inactive) | 15.5 µM (inactive) |  | 17.9 µM (inactive)
COc1ccc2c(c1C)C(=O)C(O)(CC=C(C)C)O2 (stereo unspecified) | > 100 µM (inactive) | > 100 µM (inactive) | > 100 µM (inactive) | > 100 µM (inactive) | > 100 µM (inactive) | > 100 µM (inactive) | > 100 µM (inactive) | > 100 µM (inactive) | > 100 µM (inactive) | > 100 µM (inactive) | > 100 µM (inactive) | > 100 µM (inactive) | > 100 µM (inactive) | > 100 µM | > 100 µM (inactive) | > 100 µM (inactive) | > 100 µM (inactive) | > 100 µM (inactive) |  | > 100 µM (inactive)
CC(C)C[C@H](NC(=O)[C@@H](N)Cc1cccc2ccccc12)B(O)O | 0.189 µM (active) | 0.0331 µM (active) | 0.0249 µM (active) | < 0.0182 µM (active) | 0.44 µM (active) |  | < 0.0149 µM (active) | 0.0426 µM (active) | < 0.0149 µM (active) | < 0.0164 µM (active) |  | < 0.0169 µM (active) | 2.47 µM (inactive) | 0.033 µM |  | < 0.015 µM (active) | 0.0665 µM (active) | < 0.0241 µM (active) | 0.398 µM (active) | 0.0203 µM (active)
CCCCCCCCCCCCOP(=O)(O)OP(=O)(O)OCC1OC(n2ccc(N)nc2=O)CC1O (stereo unspecified) | > 100 µM (inactive) | > 100 µM (inactive) | > 100 µM (inactive) | > 100 µM (inactive) |  | > 100 µM (inactive) | > 100 µM (inactive) | > 100 µM (inactive) | > 100 µM (inactive) | > 100 µM (inactive) | > 100 µM (inactive) | > 100 µM (inactive) | > 100 µM (inactive) | > 100 µM | > 100 µM (inactive) | > 100 µM (inactive) | > 100 µM (inactive) | > 100 µM (inactive) | > 100 µM (inactive) | > 100 µM (inactive)
